We go through ten compounds from patent US12295936B2, “Immunomodulating urea azalides” (Zoetis Services LLC, priority 2020, dated 2025).

Each structure is given as a SMILES string. Read-outs that look alike come from different tables or passages of the source. Where only a bound is given, the exact number is not on record here.

In assay [1] the test system is TNF-α. Kind of assay: LPS-stimulated whole bovine blood assay, MSD cytokine detection. Type of assay: cell-based. Conditions: Bos taurus, read-out: TNF-α (IC50 μM).
The test system of assay [2] is BRD pathogens, M. haemolytica and P. multocida. Description: MIC screening panel of BRD pathogens (antibacterial / non-antibacterial). Conditions: read-out: antibacterial / non-antibacterial (MIC for the BRD pathogens).
Assay [3] concerns IL-1β. Kind of assay: LPS-stimulated whole bovine blood assay, MSD cytokine detection. The conditions noted are these: overstimulation of IL-1β, LPS-stimulated bovine whole blood. Type of assay: cell-based.
In assay [4] the test system is IL-6. The description is as above. In kind it is cell-based. Conditions: Bos taurus, read-out: IL-6 (IC50 μM). From the text: In order to correlate RNA sequencing data to cytokine changes the whole blood assay was utilized. […] The enhancement result represents an overall stimulation of cytokine levels due to cellular stress or potential toxicity with increasing concentrations of the compound, representing a typical bell shape response curve for immunomodulatory activity.

Where [5] appears, read: LPS-stimulated bovine whole blood.

With `CC[C@H]1OC(=O)[C@H](C)[C@@H](O)[C@H](C)[C@@H](O[C@@H]2O[C@H](C)C[C@H](N(C)C(=O)Nc3ccc(OC)cc3)[C@H]2O)[C@](C)(O)C[C@@H](C)CN[C@H](C)[C@@H](O)[C@]1(C)O` [Example A-22, 1-((2S,3R,4S,6R)-2-(((2R,3S,4R,5R,8R,10R,11R,12S,13S,14R)-2-ethyl-3,4,10,13-tetrahydroxy-3,5,8,10,12,14-hexamethyl-15-oxo-1-oxa-6-azacyclopentadecan-11-yl)oxy)-3-hydroxy-6-methyltetrahydro-2H-pyran-4-yl)-3-(4-methoxyphenyl)-1-methylurea], the half-maximal inhibitory concentration (IC50) is over 250 µM in assay [1] (setting [5]) and 246 µM in assay [4] (setting [5]). Besides, the MIC in assay [2] was over 64 µg/mL. Also, the “IL-1β OS of LPS” value in assay [3] amounted to 100 µM.

For the compound `CC[C@H]1OC(=O)[C@H](C)[C@@H](O[C@H]2C[C@@](C)(OC)[C@@H](O)[C@H](C)O2)[C@H](C)[C@@H](O[C@@H]2O[C@H](C)C[C@H](N(C)C(=O)Nc3ccc(C(F)(F)F)cc3)[C@H]2O)[C@](C)(O)C[C@@H](C)CN(C)[C@H](C)[C@@H](O)[C@]1(C)O` [Example B-8, 1-((2S,3R,4S,6R)-2-(((2R,3S,4R,5R,8R,10R,11R,12S,13S,14R)-2-ethyl-3,4,10-trihydroxy-13-(((2R,4R,5S,6S)-5-hydroxy-4-methoxy-4,6-dimethyltetrahydro-2H-pyran-2-yl)oxy)-3,5,6,8,10,12,14-heptamethyl-15-oxo-1-oxa-6-azacyclopentadecan-11-yl)oxy)-3-hydroxy-6-methyltetrahydro-2H-pyran-4-yl)-1-methyl-3-(4-(trifluoromethyl)phenyl)urea], the IC50 came out at 2 µM in assay [1] (setting [5]) and 8 µM in assay [4] (setting [5]). The MIC in assay [2] was over 64 µg/mL. For the same compound, the “IL-1β OS of LPS” value in assay [3] is 6 µM.

In the case of `CC[C@H]1OC(=O)[C@H](C)[C@@H](O[C@H]2C[C@@](C)(OC)[C@@H](O)[C@H](C)O2)[C@H](C)[C@@H](O[C@@H]2O[C@H](C)C[C@H](N(C)C(=O)Nc3ccc(F)cc3)[C@H]2O)[C@](C)(O)C[C@@H](C)CN(C)[C@H](C)[C@@H](O)[C@]1(C)O` [Example B-9, 1-((2S,3R,4S,6R)-2-(((2R,3S,4R,5R,8R,10R,11R,12S,13S,14R)-2-ethyl-3,4,10-trihydroxy-13-(((2R,4R,5S,6S)-5-hydroxy-4-methoxy-4,6-dimethyltetrahydro-2H-pyran-2-yl)oxy)-3,5,6,8,10,12,14-heptamethyl-15-oxo-1-oxa-6-azacyclopentadecan-11-yl)oxy)-3-hydroxy-6-methyltetrahydro-2H-pyran-4-yl)-3-(4-fluorophenyl)-1-methylurea], the IC50 was 107 µM in assay [1] (setting [5]) and 116 µM in assay [4] (setting [5]). Further, in assay [2], the MIC is over 64 µg/mL. Moreover, the “IL-1β OS of LPS” value in assay [3] stood at 28 µM.

As to `CC[C@H]1OC(=O)[C@H](C)[C@@H](O[C@H]2C[C@@](C)(OC)[C@](O)(CCl)[C@H](C)O2)[C@H](C)[C@@H](O[C@@H]2O[C@H](C)C[C@H](N(C)C(=O)N(C)c3ccccc3)[C@H]2O)[C@](C)(O)C[C@@H](C)CN[C@H](C)[C@@H](O)[C@]1(C)O` [Example E-2, 1-((2S,3R,4S,6R)-2-(((2R,3S,4R,5R,8R,10R,11R,12S,13S,14R)-13-(((2R,4R,5S,6S)-5-(chloromethyl)-5-hydroxy-4-methoxy-4,6-dimethyltetrahydro-2H-pyran-2-yl)oxy)-2-ethyl-3,4,10-trihydroxy-3,5,8,10,12,14-hexamethyl-15-oxo-1-oxa-6-azacyclopentadecan-11-yl)oxy)-3-hydroxy-6-methyltetrahydro-2H-pyran-4-yl)-1,3-dimethyl-3-phenylurea], the figures for the IC50 in assay [1] (setting [5]) and in assay [4] (setting [5]) were 40 µM and 35 µM, respectively. In addition, the MIC in assay [2] is over 64 µg/mL. Also, the “IL-1β OS of LPS” value in assay [3] was found to be 40 µM.

As to `CC[C@H]1OC(=O)[C@H](C)[C@@H](O[C@H]2C[C@@](C)(OC)[C@](O)(CN=[N+]=[N-])[C@H](C)O2)[C@H](C)[C@@H](O[C@@H]2O[C@H](C)C[C@H](N(C)C(=O)N(C)c3ccccc3)[C@H]2O)[C@](C)(O)C[C@@H](C)CN[C@H](C)[C@@H](O)[C@]1(C)O` [Example F-2, 1-((2S,3R,4S,6R)-2-(((2R,3S,4R,5R,8R,10R,11R,12S,13S,14R)-13-(((2R,4R,5S,6S)-5-(azidomethyl)-5-hydroxy-4-methoxy-4,6-dimethyltetrahydro-2H-pyran-2-yl)oxy)-2-ethyl-3,4,10-trihydroxy-3,5,8,10,12,14-hexamethyl-15-oxo-1-oxa-6-azacyclopentadecan-11-yl)oxy)-3-hydroxy-6-methyltetrahydro-2H-pyran-4-yl)-1,3-dimethyl-3-phenylurea], the IC50 in assay [1] (setting [5]) is 11 µM; in assay [4] (setting [5]), 30 µM. Moreover, in assay [2], the MIC is over 64 µg/mL. In addition, the “IL-1β OS of LPS” value in assay [3] amounted to 40 µM.

As for `CC[C@H]1OC(=O)[C@H](C)[C@@H](O[C@H]2C[C@@](C)(OC)[C@](O)(CC#N)[C@H](C)O2)[C@H](C)[C@@H](O[C@@H]2O[C@H](C)C[C@H](N(C)C(=O)N(C)c3ccccc3)[C@H]2O)[C@](C)(O)C[C@@H](C)CN[C@H](C)[C@@H](O)[C@]1(C)O` [Example G-2, 1-((2S,3R,4S,6R)-2-(((2R,3S,4R,5R,8R,10R,11R,12S,13S,14R)-13-(((2R,4R,5S,6S)-5-(cyanomethyl)-5-hydroxy-4-methoxy-4,6-dimethyltetrahydro-2H-pyran-2-yl)oxy)-2-ethyl-3,4,10-trihydroxy-3,5,8,10,12,14-hexamethyl-15-oxo-1-oxa-6-azacyclopentadecan-11-yl)oxy)-3-hydroxy-6-methyltetrahydro-2H-pyran-4-yl)-1,3-dimethyl-3-phenylurea], the IC50 is 80 µM in assay [1] (setting [5]) and 70 µM in assay [4] (setting [5]). For the same compound, in assay [2], the MIC was over 64 µg/mL. Besides, the “IL-1β OS of LPS” value in assay [3] was determined as 100 µM.

With `CCCNC[C@]1(O)[C@H](C)O[C@@H](O[C@H]2[C@H](C)[C@@H](O[C@@H]3O[C@H](C)C[C@H](N(CCC)C(=O)N(C)c4ccc(C(F)(F)F)cc4)[C@H]3O)[C@](C)(O)C[C@@H](C)CN[C@H](C)[C@@H](O)[C@](C)(O)[C@@H](CC)OC(=O)[C@@H]2C)C[C@@]1(C)OC` [Example H-8, 1-((2S,3R,4S,6R)-2-(((2R,3S,4R,5R,8R,10R,11R,12S,13S,14R)-2-ethyl-3,4,10-trihydroxy-13-(((2R,4R,5S,6S)-5-hydroxy-4-methoxy-4,6-dimethyl-5-((propylamino)methyl)tetrahydro-2H-pyran-2-yl)oxy)-3,5,8,10,12,14-hexamethyl-15-oxo-1-oxa-6-azacyclopentadecan-11-yl)oxy)-3-hydroxy-6-methyltetrahydro-2H-pyran-4-yl)-3-methyl-1-propyl-3-(4-(trifluoromethyl)phenyl)urea], the 50% inhibitory concentration (IC50) in assay [1] (setting [5]) turned out to be 6 µM; in assay [4] (setting [5]), 5 µM. The MIC in assay [2] was over 64 µg/mL. Moreover, the “IL-1β OS of LPS” value in assay [3] amounted to 1 µM.

For `CC[C@H]1OC(=O)[C@H](C)[C@@H](O[C@H]2C[C@@](C)(OC)[C@](O)(CNCC(C)C)[C@H](C)O2)[C@H](C)[C@@H](O[C@@H]2O[C@H](C)C[C@H](N(C)C(=O)N(C)c3ccccc3)[C@H]2O)[C@](C)(O)C[C@@H](C)CN[C@H](C)[C@@H](O)[C@]1(C)O` [Example H-24, 1-((2S,3R,4S,6R)-2-(((2R,3S,4R,5R,8R,10R,11R,12S,13S,14R)-2-ethyl-3,4,10-trihydroxy-13-(((2R,4R,5S,6S)-5-hydroxy-5-((isobutylamino)methyl)-4-methoxy-4,6-dimethyltetrahydro-2H-pyran-2-yl)oxy)-3,5,8,10,12,14-hexamethyl-15-oxo-1-oxa-6-azacyclopentadecan-11-yl)oxy)-3-hydroxy-6-methyltetrahydro-2H-pyran-4-yl)-1,3-dimethyl-3-phenylurea], the IC50 in assay [1] (setting [5]) was 23 µM; in assay [4] (setting [5]), 30 µM. Also, the MIC in assay [2] is over 64 µg/mL. Moreover, the “IL-1β OS of LPS” value in assay [3] was found to be 16 µM.

Turning to `CC[C@H]1OC(=O)[C@H](C)[C@@H](O[C@H]2C[C@@](C)(OC)[C@](O)(Cn3cnnn3)[C@H](C)O2)[C@H](C)[C@@H](O[C@@H]2O[C@H](C)C[C@H](N(C)C(=O)N(C)c3ccccc3)[C@H]2O)[C@](C)(O)C[C@@H](C)CN[C@H](C)[C@@H](O)[C@]1(C)O` [Example J-29, 1-((2S,3R,4S,6R)-2-(((2R,3S,4R,5R,8R,10R,11R,12S,13S,14R)-13-(((2R,4R,5S,6S)-5-((1H-tetrazol-1-yl)methyl)-5-hydroxy-4-methoxy-4,6-dimethyltetrahydro-2H-pyran-2-yl)oxy)-2-ethyl-3,4,10-trihydroxy-3,5,8,10,12,14-hexamethyl-15-oxo-1-oxa-6-azacyclopentadecan-11-yl)oxy)-3-hydroxy-6-methyltetrahydro-2H-pyran-4-yl)-1,3-dimethyl-3-phenylurea], the IC50 in assay [1] came to 19 µM; in assay [4], 56 µM. Further, the “IL-1β OS of LPS” value in assay [3] was determined as 40 µM.

Consider `CC[C@H]1OC(=O)[C@H](C)[C@@H](O[C@H]2C[C@@](C)(OC)[C@](O)(Cn3ncnn3)[C@H](C)O2)[C@H](C)[C@@H](O[C@@H]2O[C@H](C)C[C@H](N(C)C(=O)N(C)c3ccccc3)[C@H]2O)[C@](C)(O)C[C@@H](C)CN[C@H](C)[C@@H](O)[C@]1(C)O` [Example J-30, 1-((2S,3R,4S,6R)-2-(((2R,3S,4R,5R,8R,10R,11R,12S,13S,14R)-13-(((2R,4R,5S,6S)-5-((2H-tetrazol-2-yl)methyl)-5-hydroxy-4-methoxy-4,6-dimethyltetrahydro-2H-pyran-2-yl)oxy)-2-ethyl-3,4,10-trihydroxy-3,5,8,10,12,14-hexamethyl-15-oxo-1-oxa-6-azacyclopentadecan-11-yl)oxy)-3-hydroxy-6-methyltetrahydro-2H-pyran-4-yl)-1,3-dimethyl-3-phenylurea], for which the 50% inhibitory concentration (IC50) was 16 µM in assay [1] and 111 µM in assay [4]. The “IL-1β OS of LPS” value in assay [3] was 40 µM.

By IC50 is commonly meant the midpoint of a concentration-inhibition curve.
